Consider one molecule from patent US20130259944A1, “METHODS AND COMPOSITIONS FOR TREATING CANCER WITH PLATINUM PARTICLES” (EMORY UNIVERSITY, priority 2012, published 2013).

A short description of data set [1]: Concentration profile of Pt in mice peripheral blood. The conditions noted are these: for Pt concentration in blood: Pt 2.5 mg/kg. It counts as in vivo, nude mice. The procedure: The whole blood samples were dissolved in 65% (v/v) nitric acid at 75° C. for 2 h, and Pt concentration was measured by ICP-MS.
Data set [2] can be described thus: Pt-DNA adducts in kidney and tumor in vivo. Set-up: species or system nude mice. The conditions noted are these: single iv dose Pt 2.5 mg/kg. The procedure: (§1) Blood, organs (liver, spleen, kidney, and lung), and tumor tissue were harvested, half of the organs were dissolved in 65% (v/v) nitric acid at 75° C. for 2 h, and Pt concentrations were measured by ICP-MS. The blood and other half of the organs were used to extract DNA, and the Pt concentration in DNA was quantified as described above.

Data set [3] deals with H292 cells. In words: Pt-DNA adduct formation in vitro (ICP-MS of purified DNA). It counts as cell-based, human. The conditions noted are these: 37° C., 24 h. The procedure: (§2) EGFR-negative H520 cells were used as negative control. […] The cell pellet was digested in 65% (v/v) nitric acid at 75° C. for 2 h. The Pt content was analyzed by ICP-MS. Cellular Pt levels were expressed in ng Pt/10^6 cells. To further check the targeting specificity of EHDDP nanoparticles in vitro, EGFR was knocked down by EGFR small interfering RNAs (siRNA). H292 cells were transfected with EGFR siRNA (sc-29301 from Santa Cruz Bio) (100 pmol) or scrambled siRNA (sc-37007 from Santa Cruz Bio) (100 pmol) as a nonspecific control according to the manufacturer's protocols. Briefly, in a 6-well tissue culture plate, 2×10^5 cells per well were seeded in 2 mL of antibiotic-free RPMI 1640 medium supplemented with 10% FBS and, on the following day, transfected with siRNAs at the final concentration of 100 pmol. […] Mouse anti-β-actin antibody (Trevigen, Gaithersburg, Md.) was used as a sample loading control. Immunostained protein bands were detected with an enhanced chemiluminescence kit (Thermo Scientific, Rockfield, Ill.). […] The data are shown as mean±SD (n=3). DDP-DNA adduct formation was measured using 1×10^7 cells per condition. […] In addition, the expression level of the phosphorylation of H2A.X was detected by Western Blot as described above using the Phospho-Histone H2A.X (Ser139) (20E3) rabbit mAb (Cell Signaling Technology, Inc.).

The subject of data set [4] is H292 cells (EGFR-positive NSCLC). In words: Intracellular platinum accumulation in H292 cells (ICP-MS). It counts as cell-based, human. The conditions noted are these: 0.4 μg/mL, 24 h. The procedure: as §2
Data set [5] is described as follows: Biodistribution of Pt in organs and tumor of H292 tumor-bearing mice. It counts as in vivo, nude mice. The procedure:
as §1

Data set [6] concerns H520 cells (EGFR-negative NSCLC). In words: Intracellular platinum accumulation in H520 cells (ICP-MS). It counts as cell-based, human. The conditions noted are these: 24 h. The procedure: as §2
Data set [7] concerns H292 cells. In words: SRB cytotoxicity assay. It counts as cell-based, human. The conditions noted are these: 96 h. The procedure:
H292 and H520 cells maintained in medium with 2% FBS were seeded in 96-well plates at a density of 5000 cells/well overnight prior to drug treatment. […] Cells were fixed for 1 h with 10% cold trichloroacetic acid. Plates were washed five times in water, air-dried, and then stained with 0.4% SRB for 10 min. […] Plates were read in a microplate reader by measuring absorbance at 492 nm. The percent survival was then calculated based upon the absorbance values relative to untreated samples. The experiment was repeated three times.
On the technique in general: Sulforhodamine B stains cellular protein and so reports cell mass.

Structures are written as SMILES.

In the case of `N.N.[Cl][Pt][Cl]` [DDP, cis-diamminedichloroplatinum(II)], the “Pt concentration in blood” value was 1.17±0.12 ng/mg blood in data set [1] (30 min after iv injection) and 0.36±0.09 ng/mg blood in data set [1] (8 h after iv injection). In data set [1] (discussion statement), the “time of elimination by the renal system” value is below 5 min. Besides, the “Pt concentration in DNA purified from kidney” value is 71.78±9.02 pg/μg DNA in data set [2] (4 h) and 25.72±2.78 pg/μg DNA in data set [2] (24 h). The “Pt-DNA adducts in NSCLC xenograft tumors” value in data set [2] (4 h) is 92.21±8.96 pg/μg DNA; in data set [2] (24 h), 94.68±15.01 pg/μg DNA. For the same molecule, in the data set on H292 cells [3], the “Pt level associated with cellular DNA (Pt-DNA adducts)” value is recorded as 19.68±4.35 pg Pt/μg DNA. In data set [4], the “intracellular Pt level” value stood at 2.49±0.39 ng Pt/10^6 cells. Besides, the “tumor Pt level” value was found to be 3.58±0.91 ng/mg dry tissue in data set [5] (10 min after iv injection) and 1.48±0.52 ng/mg dry tissue in data set [5] (24 h after iv injection). Also, the figures for the “Pt concentration in kidney” value in data set [5] (10 min after systemic administration), in data set [5] (4 h) and in data set [5] (24 h) were 35.25±5.70 ng/mg dry tissue, 11.9±0.79 ng/mg dry tissue and 6.39±0.67 ng/mg dry tissue, respectively. In data set [5] (4 h, single iv dose Pt 2.5 mg/kg), the “accumulation of Pt in the liver” value is 7.71±1.61 ng/mg dry tissue. For the same molecule, the “decrease of Pt concentration in the liver” value in data set [5] (24 h compared with 4 h) turned out to be 20%. For the same molecule, in data set [5] (28 days after treatment), the “Pt concentrations in the liver, spleen and kidney, comparison between treatments” value is on record as “no differences”. In data set [5] (from 10 min to 4 h), the “decrease of Pt accumulation in the liver” value stood at 42.5%. Further, the “decrease of Pt accumulation in the spleen” value in data set [5] (from 10 min to 4 h) is given as 82.86%. Moreover, in data set [5] (within 4 h), the “decrease in Pt accumulation in the kidney” value worked out at 65.1%. Moreover, the “intracellular Pt accumulation” value in data set [6] was found to be 3.38±0.42 ng Pt/10^6 cells. Moreover, the “IC50 (Pt concentration)” value with H292 cells [7] came out at 2.12 ± 0.20 µg/mL.
